Data reported in ChEMBL document CHEMBL1201862, “PubChem BioAssay data set” (2004).
Calls of active or inactive are those of the source.

Assays:
Format in all cases: functional
[1] = molecular target: Proto-oncogene tyrosine-protein kinase Src (Homo sapiens, UniProt P12931);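 also: SRC entry within a kinome-wide kinase profiling panel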
[2] = molecular target: T1, Interleukin-1 receptor-associated kinase 4 (Homo sapiens, UniProt Q9NWZ3)
T1 sequence (Q9NWZ3 whole entry): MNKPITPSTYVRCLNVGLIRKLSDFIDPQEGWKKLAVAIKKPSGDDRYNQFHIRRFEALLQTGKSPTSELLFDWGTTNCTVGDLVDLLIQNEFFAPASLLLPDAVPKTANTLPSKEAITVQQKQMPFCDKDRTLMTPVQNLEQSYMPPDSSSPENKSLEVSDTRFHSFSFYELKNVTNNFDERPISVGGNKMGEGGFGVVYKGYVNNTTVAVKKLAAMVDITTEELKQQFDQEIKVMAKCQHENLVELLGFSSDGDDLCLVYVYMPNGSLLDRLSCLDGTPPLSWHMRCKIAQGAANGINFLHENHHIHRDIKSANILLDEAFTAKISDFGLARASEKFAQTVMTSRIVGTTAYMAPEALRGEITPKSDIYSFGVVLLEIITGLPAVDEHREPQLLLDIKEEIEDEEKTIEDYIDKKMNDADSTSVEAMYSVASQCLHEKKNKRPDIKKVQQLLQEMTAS

[3] = molecular target: BDNF/NT-3 growth factors receptor (Homo sapiens, UniProt Q16620);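 also: NTRK2 measured as one member of a broad kinome-wide kinase profiling panel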
[4] = molecular target: Hepatocyte growth factor receptor (Homo sapiens, UniProt P08581);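 also: kinase panel profiling across the kinome, with MET as the panel member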
[5] = molecular target: Serine/threonine-protein kinase Chk2 (Homo sapiens, UniProt O96017);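 also: CHEK2 entry within a kinome-wide screening panel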
[6] = molecular target: Serine/threonine-protein kinase Nek2 (Homo sapiens, UniProt P51955)
[7] = molecular target: Serine/threonine-protein kinase PAK 1 (Homo sapiens, UniProt Q13153)
[8] = molecular target: Mitogen-activated protein kinase 8 (Homo sapiens, UniProt P45983);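 also: value comes from one member of a kinome-wide kinase profiling panel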
[9] = molecular target: RAC-gamma serine/threonine-protein kinase (Homo sapiens, UniProt Q9Y243)
[10] = molecular target: Serine/threonine-protein kinase PLK4 (Homo sapiens, UniProt O00444);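 also: PLK4 measured as one member of a kinome-wide kinase profiling panel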
[11] = molecular target: Tyrosine-protein kinase ABL1 (Homo sapiens, UniProt P00519)
[12] = molecular target: Tyrosine-protein kinase JAK2 (Homo sapiens, UniProt O60674);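 also: JAK2 tested as one member of a kinase panel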
[13] = molecular target: Mitogen-activated protein kinase 1 (Homo sapiens, UniProt P28482)
[14] = molecular target: High affinity nerve growth factor receptor (Homo sapiens, UniProt P04629);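 also: NTRK1 tested as one member of a kinome-wide profiling panel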
[15] = molecular target: Non-receptor tyrosine-protein kinase TYK2 (Homo sapiens, UniProt P29597)
[16] = molecular target: Serine/threonine-protein kinase PLK1 (Homo sapiens, UniProt P53350);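 also: PLK1 measured as one member of a kinome-wide profiling panel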
[17] = molecular target: Serine/threonine-protein kinase pim-2 (Homo sapiens, UniProt Q9P1W9);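 also: value comes from a broad kinase panel profiling study in which PIM2 was one of the panel members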
[18] = molecular target: Receptor-type tyrosine-protein kinase FLT3 (Homo sapiens, UniProt P36888);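 also: FLT3 was tested as one member of a kinome-wide kinase panel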
Aurora kinase A = molecular target: T2, Aurora kinase A (Homo sapiens, UniProt O14965);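 also: value from the Navigating the Kinome kinase panel profiling, panel entry STK6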
T2 sequence (O14965 whole entry): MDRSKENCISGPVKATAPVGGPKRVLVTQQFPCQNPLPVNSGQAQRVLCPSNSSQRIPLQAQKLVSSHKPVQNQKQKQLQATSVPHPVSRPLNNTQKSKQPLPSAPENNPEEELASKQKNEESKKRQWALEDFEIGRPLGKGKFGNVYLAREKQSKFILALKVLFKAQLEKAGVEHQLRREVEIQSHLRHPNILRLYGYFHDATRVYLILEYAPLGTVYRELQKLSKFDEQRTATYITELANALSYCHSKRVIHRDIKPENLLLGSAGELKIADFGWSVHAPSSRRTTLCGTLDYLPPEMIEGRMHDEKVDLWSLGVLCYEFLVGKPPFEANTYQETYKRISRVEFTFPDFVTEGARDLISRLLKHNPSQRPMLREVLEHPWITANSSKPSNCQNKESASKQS

[19] = molecular target: Serine/threonine-protein kinase PAK 4 (Homo sapiens, UniProt O96013);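 also: value obtained within a kinome profiling panel in which PAK4 was one of the panel members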
[20] = molecular target: Fibroblast growth factor receptor 1 (Homo sapiens, UniProt P11362)
[21] = molecular target: T3, Tyrosine-protein kinase ITK/TSK (Homo sapiens, UniProt Q08881);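 also: affinity for ITK measured as one member of a broad kinase panel profiling binding across the kinome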
T3 sequence (Q08881 whole entry): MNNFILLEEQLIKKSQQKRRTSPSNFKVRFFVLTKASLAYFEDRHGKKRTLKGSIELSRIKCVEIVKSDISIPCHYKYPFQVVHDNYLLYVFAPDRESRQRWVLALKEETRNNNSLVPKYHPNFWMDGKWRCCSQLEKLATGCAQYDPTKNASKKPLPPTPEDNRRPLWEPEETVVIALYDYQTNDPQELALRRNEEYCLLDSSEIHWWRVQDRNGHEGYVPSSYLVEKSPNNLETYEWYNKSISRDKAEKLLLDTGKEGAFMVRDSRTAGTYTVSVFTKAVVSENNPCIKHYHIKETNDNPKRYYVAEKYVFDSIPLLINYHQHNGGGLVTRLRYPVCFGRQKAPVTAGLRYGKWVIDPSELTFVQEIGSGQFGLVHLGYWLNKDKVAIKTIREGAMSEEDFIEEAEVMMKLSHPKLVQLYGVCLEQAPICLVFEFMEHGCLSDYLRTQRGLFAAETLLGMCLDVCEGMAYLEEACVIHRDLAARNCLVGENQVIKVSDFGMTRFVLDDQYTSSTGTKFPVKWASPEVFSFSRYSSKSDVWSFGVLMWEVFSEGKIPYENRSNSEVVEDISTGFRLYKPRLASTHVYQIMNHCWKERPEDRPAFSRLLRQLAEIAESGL

[22] = molecular target: Death-associated protein kinase 3 (Homo sapiens, UniProt O43293);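 also: measured as one member of a kinome-wide profiling panel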
[23] = molecular target: Mitogen-activated protein kinase kinase kinase kinase 2 (Homo sapiens, UniProt Q12851);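 also: measured as one member of a kinome-wide kinase panel, with MAP4K2 as the panel entry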
[24] = molecular target: Serine/threonine-protein kinase BRSK1 (Homo sapiens, UniProt Q8TDC3);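 also: measured within a kinome-wide kinase panel, with the target listed as KIAA1811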
[25] = molecular target: Megakaryocyte-associated tyrosine-protein kinase (Homo sapiens, UniProt P42679);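 also: affinity measured as one member of a kinase panel (Navigating the Kinome) against MATK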

Sequence of Tyrosine-protein kinase JAK2 (O60674 whole entry): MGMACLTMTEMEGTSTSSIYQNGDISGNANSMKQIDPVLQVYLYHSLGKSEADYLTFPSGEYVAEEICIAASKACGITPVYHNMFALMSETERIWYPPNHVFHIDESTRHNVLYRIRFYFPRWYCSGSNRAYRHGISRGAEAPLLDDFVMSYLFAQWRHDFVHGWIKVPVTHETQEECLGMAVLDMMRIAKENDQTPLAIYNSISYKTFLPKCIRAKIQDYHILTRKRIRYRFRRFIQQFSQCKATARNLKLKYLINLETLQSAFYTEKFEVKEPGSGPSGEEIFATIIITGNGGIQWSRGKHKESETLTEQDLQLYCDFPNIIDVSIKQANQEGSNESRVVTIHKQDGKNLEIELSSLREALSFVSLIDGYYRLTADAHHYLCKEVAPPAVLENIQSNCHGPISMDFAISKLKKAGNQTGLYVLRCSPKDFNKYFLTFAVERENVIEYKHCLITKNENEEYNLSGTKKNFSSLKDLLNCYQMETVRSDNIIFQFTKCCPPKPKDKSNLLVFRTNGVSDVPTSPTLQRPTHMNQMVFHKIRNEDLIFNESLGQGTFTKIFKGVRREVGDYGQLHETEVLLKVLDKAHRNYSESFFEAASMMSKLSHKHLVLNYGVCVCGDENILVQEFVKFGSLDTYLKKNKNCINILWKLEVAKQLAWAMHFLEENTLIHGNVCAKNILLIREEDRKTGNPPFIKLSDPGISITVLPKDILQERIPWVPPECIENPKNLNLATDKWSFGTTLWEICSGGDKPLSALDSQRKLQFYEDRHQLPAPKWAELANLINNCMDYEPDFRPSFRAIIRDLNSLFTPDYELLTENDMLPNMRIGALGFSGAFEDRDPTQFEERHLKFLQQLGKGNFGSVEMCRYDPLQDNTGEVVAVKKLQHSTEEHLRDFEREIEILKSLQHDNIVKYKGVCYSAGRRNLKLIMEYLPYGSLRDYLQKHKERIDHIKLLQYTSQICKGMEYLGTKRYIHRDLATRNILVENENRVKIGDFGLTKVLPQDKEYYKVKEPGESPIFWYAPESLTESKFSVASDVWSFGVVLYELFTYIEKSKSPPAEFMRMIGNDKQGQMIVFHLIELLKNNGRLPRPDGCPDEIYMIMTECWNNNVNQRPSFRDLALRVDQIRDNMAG
Sequence of Serine/threonine-protein kinase PLK4 (O00444 whole entry): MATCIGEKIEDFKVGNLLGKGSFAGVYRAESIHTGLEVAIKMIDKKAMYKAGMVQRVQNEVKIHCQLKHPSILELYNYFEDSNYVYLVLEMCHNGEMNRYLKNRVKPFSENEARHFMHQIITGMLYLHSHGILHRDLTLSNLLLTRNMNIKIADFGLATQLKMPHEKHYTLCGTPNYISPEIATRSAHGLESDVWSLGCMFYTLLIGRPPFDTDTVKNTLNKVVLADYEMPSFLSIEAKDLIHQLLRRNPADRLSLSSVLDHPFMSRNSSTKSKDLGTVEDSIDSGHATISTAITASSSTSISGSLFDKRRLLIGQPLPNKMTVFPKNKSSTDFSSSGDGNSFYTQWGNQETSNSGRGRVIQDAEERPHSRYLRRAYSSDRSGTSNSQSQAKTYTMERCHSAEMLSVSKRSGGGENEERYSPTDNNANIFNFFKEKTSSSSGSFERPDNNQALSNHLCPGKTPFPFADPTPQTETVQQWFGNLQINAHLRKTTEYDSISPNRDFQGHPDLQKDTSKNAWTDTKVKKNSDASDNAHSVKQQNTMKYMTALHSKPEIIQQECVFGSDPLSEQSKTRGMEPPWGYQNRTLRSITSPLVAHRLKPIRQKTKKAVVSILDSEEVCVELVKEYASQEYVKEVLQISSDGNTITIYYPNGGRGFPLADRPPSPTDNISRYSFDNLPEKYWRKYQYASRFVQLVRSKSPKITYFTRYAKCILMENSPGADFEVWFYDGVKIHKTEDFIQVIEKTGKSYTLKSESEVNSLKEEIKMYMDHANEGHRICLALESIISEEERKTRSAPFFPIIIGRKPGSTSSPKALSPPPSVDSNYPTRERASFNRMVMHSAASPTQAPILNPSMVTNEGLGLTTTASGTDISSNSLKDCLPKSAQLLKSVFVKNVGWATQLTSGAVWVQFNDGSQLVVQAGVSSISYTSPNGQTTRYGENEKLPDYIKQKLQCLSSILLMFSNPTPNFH
Sequence of Mitogen-activated protein kinase 1 (P28482 whole entry): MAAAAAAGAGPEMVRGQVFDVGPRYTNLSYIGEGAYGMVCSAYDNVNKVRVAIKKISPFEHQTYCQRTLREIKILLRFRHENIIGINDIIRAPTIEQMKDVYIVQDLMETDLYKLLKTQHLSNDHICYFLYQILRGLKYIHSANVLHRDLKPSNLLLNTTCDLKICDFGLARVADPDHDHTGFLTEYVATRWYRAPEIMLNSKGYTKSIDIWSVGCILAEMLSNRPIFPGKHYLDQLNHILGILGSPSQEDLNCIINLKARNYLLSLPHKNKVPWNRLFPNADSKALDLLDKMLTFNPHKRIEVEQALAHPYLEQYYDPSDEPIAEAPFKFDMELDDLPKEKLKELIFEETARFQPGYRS
Sequence of Serine/threonine-protein kinase Nek2 (P51955 whole entry): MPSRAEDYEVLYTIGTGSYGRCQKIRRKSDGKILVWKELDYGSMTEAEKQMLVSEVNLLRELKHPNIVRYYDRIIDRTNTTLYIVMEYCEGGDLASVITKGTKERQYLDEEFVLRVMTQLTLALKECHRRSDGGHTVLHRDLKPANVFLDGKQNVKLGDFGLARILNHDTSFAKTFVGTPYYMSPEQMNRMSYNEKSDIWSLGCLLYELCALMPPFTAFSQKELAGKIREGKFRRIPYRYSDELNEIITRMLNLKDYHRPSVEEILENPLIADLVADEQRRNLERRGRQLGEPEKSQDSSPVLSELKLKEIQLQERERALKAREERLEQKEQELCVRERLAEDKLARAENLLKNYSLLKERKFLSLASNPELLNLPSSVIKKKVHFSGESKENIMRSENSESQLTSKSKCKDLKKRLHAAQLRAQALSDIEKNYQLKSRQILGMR
Sequence of Serine/threonine-protein kinase Chk2 (O96017 whole entry): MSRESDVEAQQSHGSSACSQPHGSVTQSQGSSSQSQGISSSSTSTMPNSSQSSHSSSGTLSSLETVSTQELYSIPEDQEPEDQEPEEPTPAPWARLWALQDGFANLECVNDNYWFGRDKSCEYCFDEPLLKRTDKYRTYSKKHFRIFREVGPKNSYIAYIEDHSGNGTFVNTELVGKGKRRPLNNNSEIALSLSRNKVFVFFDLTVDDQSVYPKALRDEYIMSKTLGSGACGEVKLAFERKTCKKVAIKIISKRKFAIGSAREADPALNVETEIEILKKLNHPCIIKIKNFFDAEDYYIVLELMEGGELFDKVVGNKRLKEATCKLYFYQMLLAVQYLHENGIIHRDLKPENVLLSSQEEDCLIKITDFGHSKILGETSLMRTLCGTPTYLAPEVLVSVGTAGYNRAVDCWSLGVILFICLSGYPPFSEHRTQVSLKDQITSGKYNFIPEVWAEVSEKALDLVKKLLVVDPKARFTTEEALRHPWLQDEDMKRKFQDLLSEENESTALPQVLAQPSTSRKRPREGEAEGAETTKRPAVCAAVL
Sequence of Mitogen-activated protein kinase 8 (P45983 whole entry): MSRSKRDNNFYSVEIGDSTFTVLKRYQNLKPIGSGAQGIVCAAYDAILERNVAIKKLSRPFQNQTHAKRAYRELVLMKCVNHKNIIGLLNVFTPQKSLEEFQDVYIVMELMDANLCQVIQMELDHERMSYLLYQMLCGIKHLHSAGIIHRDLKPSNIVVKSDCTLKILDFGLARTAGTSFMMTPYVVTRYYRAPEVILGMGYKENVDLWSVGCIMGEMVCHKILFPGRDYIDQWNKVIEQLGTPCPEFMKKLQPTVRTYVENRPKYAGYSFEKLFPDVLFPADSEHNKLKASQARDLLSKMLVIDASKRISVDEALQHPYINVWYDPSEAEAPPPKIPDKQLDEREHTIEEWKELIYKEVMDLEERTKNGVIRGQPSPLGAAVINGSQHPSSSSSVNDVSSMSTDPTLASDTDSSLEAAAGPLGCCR
Sequence of Non-receptor tyrosine-protein kinase TYK2 (P29597 whole entry): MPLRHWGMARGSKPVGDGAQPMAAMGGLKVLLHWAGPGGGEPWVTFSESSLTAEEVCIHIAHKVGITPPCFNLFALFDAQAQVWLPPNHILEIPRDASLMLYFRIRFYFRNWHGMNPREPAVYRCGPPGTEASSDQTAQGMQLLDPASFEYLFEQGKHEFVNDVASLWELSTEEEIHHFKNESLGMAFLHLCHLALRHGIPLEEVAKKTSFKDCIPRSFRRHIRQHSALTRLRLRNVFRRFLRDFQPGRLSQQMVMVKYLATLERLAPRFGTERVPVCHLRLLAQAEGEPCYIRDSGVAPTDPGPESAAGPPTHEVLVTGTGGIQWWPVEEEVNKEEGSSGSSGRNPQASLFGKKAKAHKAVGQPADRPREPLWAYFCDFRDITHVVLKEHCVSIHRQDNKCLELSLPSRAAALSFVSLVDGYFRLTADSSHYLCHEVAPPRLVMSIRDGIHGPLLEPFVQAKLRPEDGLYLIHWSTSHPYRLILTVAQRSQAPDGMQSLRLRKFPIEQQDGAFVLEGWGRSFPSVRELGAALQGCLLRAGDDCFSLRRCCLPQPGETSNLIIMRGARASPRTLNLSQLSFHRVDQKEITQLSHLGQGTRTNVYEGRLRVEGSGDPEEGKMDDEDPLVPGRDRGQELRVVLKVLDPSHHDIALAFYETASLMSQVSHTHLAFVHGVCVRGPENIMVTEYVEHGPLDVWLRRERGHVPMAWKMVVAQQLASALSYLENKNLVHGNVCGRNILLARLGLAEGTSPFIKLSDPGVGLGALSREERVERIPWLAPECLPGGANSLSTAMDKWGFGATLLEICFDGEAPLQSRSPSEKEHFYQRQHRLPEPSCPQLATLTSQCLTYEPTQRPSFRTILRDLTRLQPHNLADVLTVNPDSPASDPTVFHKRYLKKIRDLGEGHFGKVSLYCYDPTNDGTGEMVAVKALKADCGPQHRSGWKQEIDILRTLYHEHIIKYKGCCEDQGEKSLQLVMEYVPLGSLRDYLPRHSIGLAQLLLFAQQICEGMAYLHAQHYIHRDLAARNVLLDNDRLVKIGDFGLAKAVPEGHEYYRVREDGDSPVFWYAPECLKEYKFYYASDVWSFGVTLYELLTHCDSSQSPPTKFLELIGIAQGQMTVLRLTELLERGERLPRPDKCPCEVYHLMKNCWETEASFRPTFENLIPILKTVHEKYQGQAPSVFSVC

Row | Ki [1] | Ki [2] | Ki [3] | Ki [4] | Ki [5] | Ki [6] | Ki [7] | Ki [8] | Ki [10] | Ki [11] | Ki [12] | Ki [13] | Ki [14] | Ki [15] | Ki [17] | Ki [18] | Ki (Aurora kinase A) | Ki [19] | Ki [20] | Ki [21] | Structure (SMILES) | further results
1 | 1580 nM (active) | 3980 nM (active) | > 5010 nM (inactive) | > 3160 nM (inactive) | > 10000 nM (inactive) | > 10000 nM (inactive) | > 10000 nM (inactive) | > 3160 nM (inactive) | 794 nM (active) | > 631 nM (inactive) | > 1580 nM (inactive) | > 7940 nM (inactive) | > 2510 nM (inactive) | > 2000 nM (inactive) | > 1580 nM (inactive) | 631 nM (active) | 794 nM (active) | > 5010 nM (inactive) | > 5010 nM (inactive) | 398 nM (active) | Cc1c(C=O)c(O)n2c(nc3ccccc32)c1C#N | Ki [9]: > 10000 nM (inactive); Ki [16]: 1260 nM (active); Ki [22]: 1000 nM (active)
2 | > 2000 nM (inactive) | 398 nM (active) | > 5010 nM (inactive) | > 3160 nM (inactive) | 79.4 nM (active) | > 10000 nM (inactive) | 2000 nM (active) | > 3160 nM (inactive) | 2510 nM (active) | > 631 nM (inactive) | > 1580 nM (inactive) | 631 nM (active) | > 2510 nM (inactive) | > 2000 nM (inactive) | 1.26 nM (active) | 1580 nM (active) | > 1580 nM (inactive) | 398 nM (active) | > 5010 nM (inactive) | > 1580 nM (inactive) | Cc1n[nH]c2cnc(-c3cncc(OCC(N)Cc4cccc(C(F)(F)F)c4)c3)cc12 (configuration not stated) | Ki [23]: 63.1 nM (active); Ki [24]: 2000 nM (active); Ki [25]: > 2000 nM (inactive); Ki [22]: 3.98 nM (active)
